Measurements as given in PubChem BioAssay (NCI).
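Five concentrations, 48 hours, 96-well plates. Abbreviation: GI50, concentration required for 50% inhibition of growth. TGI: concentration producing complete growth inhibition.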

Tests used:
Assay in all cases: growth of human tumour cells (NCI), 48 h
786-0 renal = tested on: 786-0 renal
A498 renal = tested on: A498 renal
A549 NSCLC = tested on: A549 NSCLC
ACHN renal = tested on: ACHN renal
BT-549 breast = tested on: BT-549 breast
CAKI-1 renal = tested on: CAKI-1 renal
CCRF-CEM leukemia = tested on: CCRF-CEM leukemia
COLO 205 colon = tested on: COLO 205 colon
DU-145 prostate = tested on: DU-145 prostate
EKVX NSCLC = tested on: EKVX NSCLC
HCC-2998 colon = tested on: HCC-2998 colon
HCT-116 colon = tested on: HCT-116 colon
HCT-15 colon = tested on: HCT-15 colon
HL-60(TB) leukemia = tested on: HL-60(TB) leukemia
HOP-62 NSCLC = tested on: HOP-62 NSCLC
HOP-92 NSCLC = tested on: HOP-92 NSCLC
HS 578T breast = tested on: HS 578T breast
HT29 colon = tested on: HT29 colon
IGROV1 ovarian = tested on: IGROV1 ovarian
K-562 leukemia = tested on: K-562 leukemia
KM12 colon = tested on: KM12 colon
LOX IMVI melanoma = tested on: LOX IMVI melanoma
M14 melanoma = tested on: M14 melanoma
MALME-3M melanoma = tested on: MALME-3M melanoma
MCF7 breast = tested on: MCF7 breast
MDA-MB-231 breast = tested on: MDA-MB-231 breast
MDA-MB-435 = tested on: MDA-MB-435
MDA-MB-468 breast = tested on: MDA-MB-468 breast
MOLT-4 leukemia = tested on: MOLT-4 leukemia
NCI-H226 lung = tested on: NCI-H226 lung
NCI-H23 lung = tested on: NCI-H23 lung
NCI-H460 lung = tested on: NCI-H460 lung
NCI-H522 lung = tested on: NCI-H522 lung
NCI/ADR-RES ovarian = tested on: NCI/ADR-RES ovarian
OVCAR-3 ovarian = tested on: OVCAR-3 ovarian
OVCAR-4 ovarian = tested on: OVCAR-4 ovarian
OVCAR-5 ovarian = tested on: OVCAR-5 ovarian
OVCAR-8 ovarian = tested on: OVCAR-8 ovarian
PC-3 prostate = tested on: PC-3 prostate
RPMI-8226 leukemia = tested on: RPMI-8226 leukemia
RXF 393 renal = tested on: RXF 393 renal
SF-268 CNS = tested on: SF-268 CNS
SF-295 CNS = tested on: SF-295 CNS
SF-539 CNS = tested on: SF-539 CNS
SK-MEL-2 melanoma = tested on: SK-MEL-2 melanoma
SK-MEL-28 melanoma = tested on: SK-MEL-28 melanoma
SK-MEL-5 melanoma = tested on: SK-MEL-5 melanoma
SK-OV-3 ovarian = tested on: SK-OV-3 ovarian
SN12C renal = tested on: SN12C renal
SNB-19 CNS = tested on: SNB-19 CNS
SNB-75 CNS = tested on: SNB-75 CNS
SR leukemia = tested on: SR leukemia
SW-620 colon = tested on: SW-620 colon
T-47D breast = tested on: T-47D breast
TK-10 renal = tested on: TK-10 renal
U251 CNS = tested on: U251 CNS
UACC-257 melanoma = tested on: UACC-257 melanoma
UACC-62 melanoma = tested on: UACC-62 melanoma
UO-31 renal = tested on: UO-31 renal

SMILES: N/C(=N\c1nc2ccccc2s1)NC(=O)Nc1ccc(Cl)cc1Cl
- GI50 (786-0 renal): 456 nM
- TGI (786-0 renal): 1760 nM
- GI50 (A498 renal): 1640 nM
- TGI (A498 renal): 3730 nM
- GI50 (A549 NSCLC): 878 nM
- TGI (A549 NSCLC): 2840 nM
- GI50 (ACHN renal): 574 nM
- TGI (ACHN renal): 2080 nM
- GI50 (BT-549 breast): 414 nM
- TGI (BT-549 breast): 5040 nM
- GI50 (CAKI-1 renal): 389 nM
- TGI (CAKI-1 renal): 2210 nM
- GI50 (CCRF-CEM leukemia): 360 nM
- TGI (CCRF-CEM leukemia): 3800 nM
- GI50 (COLO 205 colon): 491 nM
- TGI (COLO 205 colon): 1780 nM
- GI50 (DU-145 prostate): 1000 nM
- TGI (DU-145 prostate): 3060 nM
- GI50 (EKVX NSCLC): 489 nM
- TGI (EKVX NSCLC): 2660 nM
- GI50 (HCC-2998 colon): 978 nM
- TGI (HCC-2998 colon): 2860 nM
- GI50 (HCT-116 colon): 384 nM
- TGI (HCT-116 colon): 1510 nM
- GI50 (HCT-15 colon): 379 nM
- TGI (HCT-15 colon): 1980 nM
- GI50 (HL-60(TB) leukemia): 295 nM
- GI50 (HOP-62 NSCLC): 397 nM
- TGI (HOP-62 NSCLC): 1810 nM
- GI50 (HOP-92 NSCLC): 923 nM
- TGI (HOP-92 NSCLC): 3910 nM
- GI50 (HS 578T breast): 289 nM
- TGI (HS 578T breast): 2430 nM
- GI50 (HT29 colon): 341 nM
- TGI (HT29 colon): 1150 nM
- GI50 (IGROV1 ovarian): 558 nM
- TGI (IGROV1 ovarian): 2350 nM
- GI50 (K-562 leukemia): 370 nM
- GI50 (KM12 colon): 439 nM
- TGI (KM12 colon): 3600 nM
- GI50 (LOX IMVI melanoma): 567 nM
- TGI (LOX IMVI melanoma): 1960 nM
- GI50 (M14 melanoma): 390 nM
- TGI (M14 melanoma): 1840 nM
- GI50 (MALME-3M melanoma): 454 nM
- TGI (MALME-3M melanoma): 2130 nM
- GI50 (MCF7 breast): 309 nM
- TGI (MCF7 breast): 1780 nM
- GI50 (MDA-MB-231 breast): 571 nM
- TGI (MDA-MB-231 breast): 2180 nM
- GI50 (MDA-MB-435): 160 nM
- TGI (MDA-MB-435): 510 nM
- GI50 (MDA-MB-468 breast): 271 nM
- TGI (MDA-MB-468 breast): 788 nM
- GI50 (MOLT-4 leukemia): 536 nM
- GI50 (NCI-H226 lung): 948 nM
- TGI (NCI-H226 lung): 2680 nM
- GI50 (NCI-H23 lung): 835 nM
- TGI (NCI-H23 lung): 2440 nM
- GI50 (NCI-H460 lung): 419 nM
- TGI (NCI-H460 lung): 1510 nM
- GI50 (NCI-H522 lung): 194 nM
- TGI (NCI-H522 lung): 787 nM
- GI50 (NCI/ADR-RES ovarian): 269 nM
- TGI (NCI/ADR-RES ovarian): 937 nM
- GI50 (OVCAR-3 ovarian): 359 nM
- TGI (OVCAR-3 ovarian): 1340 nM
- GI50 (OVCAR-4 ovarian): 1530 nM
- TGI (OVCAR-4 ovarian): 5070 nM
- GI50 (OVCAR-5 ovarian): 948 nM
- TGI (OVCAR-5 ovarian): 3090 nM
- GI50 (OVCAR-8 ovarian): 766 nM
- TGI (OVCAR-8 ovarian): 4610 nM
- GI50 (PC-3 prostate): 753 nM
- TGI (PC-3 prostate): 3890 nM
- GI50 (RPMI-8226 leukemia): 1120 nM
- TGI (RPMI-8226 leukemia): 8960 nM
- GI50 (RXF 393 renal): 357 nM
- TGI (RXF 393 renal): 1690 nM
- GI50 (SF-268 CNS): 1160 nM
- TGI (SF-268 CNS): 23000 nM
- GI50 (SF-295 CNS): 334 nM
- TGI (SF-295 CNS): 1310 nM
- GI50 (SF-539 CNS): 261 nM
- TGI (SF-539 CNS): 842 nM
- GI50 (SK-MEL-2 melanoma): 351 nM
- TGI (SK-MEL-2 melanoma): 1170 nM
- GI50 (SK-MEL-28 melanoma): 1040 nM
- TGI (SK-MEL-28 melanoma): 5670 nM
- GI50 (SK-MEL-5 melanoma): 352 nM
- TGI (SK-MEL-5 melanoma): 1710 nM
- GI50 (SK-OV-3 ovarian): 434 nM
- TGI (SK-OV-3 ovarian): 2210 nM
- GI50 (SN12C renal): 566 nM
- TGI (SN12C renal): 2210 nM
- GI50 (SNB-19 CNS): 672 nM
- TGI (SNB-19 CNS): 5540 nM
- GI50 (SNB-75 CNS): 230 nM
- TGI (SNB-75 CNS): 997 nM
- GI50 (SR leukemia): 952 nM
- GI50 (SW-620 colon): 455 nM
- TGI (SW-620 colon): 2460 nM
- GI50 (T-47D breast): 421 nM
- TGI (T-47D breast): 6420 nM
- GI50 (TK-10 renal): 1910 nM
- TGI (TK-10 renal): 4280 nM
- GI50 (U251 CNS): 458 nM
- TGI (U251 CNS): 1750 nM
- GI50 (UACC-257 melanoma): 2070 nM
- TGI (UACC-257 melanoma): 17700 nM
- GI50 (UACC-62 melanoma): 374 nM
- TGI (UACC-62 melanoma): 3200 nM
- GI50 (UO-31 renal): 503 nM
- TGI (UO-31 renal): 1960 nM
